The assay has as its target T1, aurora-A (human) (Homo sapiens, UniProt O14965).
T1 construct: purchased Upstate, Dundee, UK
T1 sequence (O14965 1-403): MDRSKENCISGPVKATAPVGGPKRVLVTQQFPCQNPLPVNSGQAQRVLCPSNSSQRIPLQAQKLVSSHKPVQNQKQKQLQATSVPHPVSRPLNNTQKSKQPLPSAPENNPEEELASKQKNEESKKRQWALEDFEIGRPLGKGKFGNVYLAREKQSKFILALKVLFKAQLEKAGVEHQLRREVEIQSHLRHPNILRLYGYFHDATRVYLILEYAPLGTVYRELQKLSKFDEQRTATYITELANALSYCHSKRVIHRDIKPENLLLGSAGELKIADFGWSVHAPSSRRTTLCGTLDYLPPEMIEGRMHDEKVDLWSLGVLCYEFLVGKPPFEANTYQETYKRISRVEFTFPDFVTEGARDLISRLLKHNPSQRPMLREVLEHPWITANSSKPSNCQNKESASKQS
As to the kind of experiment: Aurora-A (human) kinase assay. It is filed as biochemical. Particulars: read-out: Activity (Aurora A activity, IC50 grading). As to the method:
This was achieved by measurement of incorporation of radioactive phosphate from ATP into Kemptide substrate (LRRASLG), upon phosphorylation by commercially obtained aurora-A (human, Upstate; Dundee, UK). Assays were performed using 96-well plates and appropriate assay buffers (20 mM Tris, 25 mM β-glycerophosphate, 5 mM EGTA, 1 mM DTT, 1 mM sodium vanadate, pH 7.5), into which were added 2-5 ng of active enzyme with 500 μM substrate (Kemptide). The reactions were initiated by addition of MATP mix (15 mM MgCl2+100 μM ATP with 15-25 kBq per well of [γ-^32P]-ATP) and mixtures incubated for 30 min at 30° C. Reactions were stopped by addition of an equal volume of 75 mM aq orthophosphoric acid, followed by filtration through p81 filterplates (Whatman Polyfiltronics, Kent, UK). After washing 4 times with 75 mM aq orthophosphoric acid, plates were dried, scintillant added and incorporated radioactivity measured in a scintillation counter (TopCount, Packard Instruments, Pangbourne, Berks, UK). Compounds for kinase assay were made up as 10 mM stocks in DMSO and diluted into 10% DMSO in assay buffer. Data was analysed using curve-fitting software (XLfit version 4.0.2, IDBS, Guildford, Surrey, UK) to determine IC50 values (concentration of test compound which inhibits kinase activity by 50%).
Turning to `Cc1c(-c2ccnc(Nc3cccc(OC(F)(F)F)c3)n2)c(C)n2c1C(=O)NCC2` [Example I-30, 6,8-Dimethyl-7-[2-(3-trifluoromethoxy-phenylamino)pyrimidin-4-yl]-3,4-dihydro-2H-pyrrolo[1,2-a]pyrazin-1-one], the IC50 was less than 10000 nM.

As for `Cc1c(-c2ccnc(Nc3cccc(O)c3)n2)c(C)n2c1C(=O)NCC2` [Example I-31, 7-[2-(3-Hydroxy-phenylamino)-pyrimidin-4-yl]-6,8-dimethyl-3,4-dihydro-2H-pyrrolo[1,2-a]pyrazin-1-one], the IC50 is less than 1000 nM.

Regarding `Cc1c(-c2ccnc(Nc3cccc(S(C)(=O)=O)c3)n2)c(C)n2c1C(=O)NCC2` [Example I-32, 7-[2-(3-Methanesulfonyl-phenylamino)-pyrimidin-4-yl]-6,8-dimethyl-3,4-dihydro-2H-pyrrolo[1,2-a]pyrazin-1-one], the half-inhibitory concentration (IC50) was less than 100 nM.

As to `Cc1c(-c2ccnc(Nc3ccc(S(C)(=O)=O)cc3)n2)c(C)n2c1C(=O)NCC2` [Example I-33, 7-[2-(4-Methanesulfonyl-phenylamino)-pyrimidin-4-yl]-6,8-dimethyl-3,4-dihydro-2H-pyrrolo[1,2-a]pyrazin-1-one], the IC50 was less than 100 nM.

Turning to `Cc1c(-c2ccnc(Nc3cccc(CCC(=O)O)c3)n2)c(C)n2c1C(=O)NCC2` [Example I-34, 3-{3-[4-(6,8-Dimethyl-1-oxo-1,2,3,4-tetrahydro-pyrrolo[1,2-a]pyrazin-7-yl)-pyrimidin-2-ylamino]-phenyl}-propionic acid], the 50% inhibitory concentration (IC50) was less than 100 nM.

As to `Cc1c(-c2ccnc(Nc3cccc(S(=O)(=O)N4CCOCC4)c3)n2)c(C)n2c1C(=O)NCC2` [Example I-35, 8-Dimethyl-7-{2-[3-(morpholine-4-sulfonyl)-phenylamino]-pyrimidin-4-yl}-3,4-dihydro-2H-pyrrolo[1,2-a]pyrazin-1-one], the IC50 is less than 1000 nM.

For the compound `Cc1ccc(Nc2nccc(-c3c(C)c4n(c3C)CCNC4=O)n2)cc1S(=O)(=O)N1CCOCC1` [Example I-36, 6,8-Dimethyl-7-{2-[4-methyl-3-(morpholine-4-sulfonyl)-phenylamino]-pyrimidin-4-yl}-3,4-dihydro-2H-pyrrolo[1,2-a]pyrazin-1-one], the IC50 was less than 1000 nM.

For `Cc1c(-c2ccnc(Nc3ccc(N4CCSCC4)cc3)n2)c(C)n2c1C(=O)NCC2` [Example I-37, 6,8-Dimethyl-7-[2-(4-thiomorpholin-4-yl-phenylamino)-pyrimidin-4-yl]-3,4-dihydro-2H-pyrrolo[1,2-a]pyrazin-1-one], the IC50 is less than 1000 nM.

For the compound `COCCNS(=O)(=O)c1ccc(Nc2nccc(-c3c(C)c4n(c3C)CCNC4=O)n2)cc1` [Example I-38, 4-[4-(6,8-Dimethyl-1-oxo-1,2,3,4-tetrahydro-pyrrolo[1,2-a]pyrazin-7-yl)-pyrimidin-2-ylamino]-N-(2-methoxy-ethyl)-benzenesulfonamide], the IC50 is less than 1000 nM.

Take `Cc1ccc(Nc2nccc(-c3c(C)c4n(c3C)CCNC4=O)n2)cc1` [Example I-39, 6,8-Dimethyl-7-(2-p-tolylamino-pyrimidin-4-yl)-3,4-dihydro-2H-pyrrolo[1,2-a]pyrazin-1-one]: the IC50 was less than 1000 nM.

Turning to `Cc1c(-c2ccnc(Nc3ccc(C(C)C(=O)O)cc3)n2)c(C)n2c1C(=O)NCC2` (centres unmarked) [Example I-40, 2-{4-[4-(6,8-Dimethyl-1-oxo-1,2,3,4-tetrahydro-pyrrolo[1,2-a]pyrazin-7-yl)-pyrimidin-2-ylamino]-phenyl}-propionic acid], the half-maximal inhibitory concentration (IC50) is less than 1000 nM.

For `Cc1c(-c2ccnc(Nc3cccc(OCC(=O)O)c3)n2)c(C)n2c1C(=O)NCC2` [Example I-41, {3-[4-(6,8-Dimethyl-1-oxo-1,2,3,4-tetrahydro-pyrrolo[1,2-a]pyrazin-7-yl)-pyrimidin-2-ylamino]-phenoxy}-acetic acid], the IC50 was less than 100 nM.

In the case of `Cc1c(-c2ccnc(Nc3cccc(NS(C)(=O)=O)c3)n2)c(C)n2c1C(=O)NCC2` [Example I-42, N-{3-[4-(6,8-Dimethyl-1-oxo-1,2,3,4-tetrahydro-pyrrolo[1,2-a]pyrazin-7-yl)-pyrimidin-2-ylamino]-phenyl}-methanesulfonamide], the concentration for half-maximal inhibition (IC50) was less than 1000 nM.

As for `CNS(=O)(=O)c1ccc(Nc2nccc(-c3c(C)c4n(c3C)CCNC4=O)n2)cc1OC` [Example I-43, 4-[4-(6,8-Dimethyl-1-oxo-1,2,3,4-tetrahydropyrrolo[1,2-a]pyrazin-7-yl)-pyrimidin-2-ylamino]-2-methoxy-N-methyl-benzenesulfonamide], the concentration for half-maximal inhibition (IC50) was less than 1000 nM.

As for `Cc1c(-c2ccnc(Nc3ccc(N4CCOC4=O)cc3)n2)c(C)n2c1C(=O)NCC2` [Example I-44, 6,8-Dimethyl-7-{2-[4-(2-oxo-oxazolidin-3-yl)-phenylamino]-pyrimidin-4-yl}-3,4-dihydro-2H-pyrrolo[1,2-a]pyrazin-1-one], the half-maximal inhibitory concentration (IC50) was less than 1000 nM.

Consider `Cc1c(-c2ccnc(Nc3ccc4c(c3)COCO4)n2)c(C)n2c1C(=O)NCC2` [Example I-45, 7-[2-(4H-Benzo[1,3]dioxin-6-ylamino)-pyrimidin-4-yl]-6,8-dimethyl-3,4-dihydro-2H-pyrrolo[1,2-a]pyrazin-1-one], for which the half-maximal inhibitory concentration (IC50) was less than 100 nM.

Regarding `Cc1nccc(-c2cccc(Nc3nccc(-c4c(C)c5n(c4C)CCNC5=O)n3)c2)n1` [Example I-46, 6,8-Dimethyl-7-{2-[3-(2-methyl-pyrimidin-4-yl)-phenylamino]-pyrimidin-4-yl}-3,4-dihydro-2H-pyrrolo[1,2-a]pyrazin-1-one], the 50% inhibitory concentration (IC50) was less than 100 nM.

Consider `CC(=O)Nc1ccc(Nc2nccc(-c3c(C)c4n(c3C)CCNC4=O)n2)cc1Cl` [Example I-47, N-{2-Chloro-4-[4-(6,8-dimethyl-1-oxo-1,2,3,4-tetrahydro-pyrrolo[1,2-a]pyrazin-7-yl)-pyrimidin-2-ylamino]-phenyl}-acetamide], for which the IC50 was less than 1000 nM.

For the compound `Cc1cc2cc(Nc3nccc(-c4c(C)c5n(c4C)CCNC5=O)n3)ccc2[nH]1` [Example I-48, 6,8-Dimethyl-7-[2-(2-methyl-1H-indol-5-ylamino)-pyrimidin-4-yl]-3,4-dihydro-2H-pyrrolo[1,2-a]pyrazin-1-one], the concentration for half-maximal inhibition (IC50) was less than 1000 nM.

With `Cc1c(-c2ccnc(Nc3cccc(-c4cnco4)c3)n2)c(C)n2c1C(=O)NCC2` [Example I-49, 6,8-Dimethyl-7-[2-(3-oxazol-5-yl-phenylamino)-pyrimidin-4-yl]-3,4-dihydro-2H-pyrrolo[1,2-a]pyrazin-1-one], the IC50 was less than 1000 nM.

In the case of `Cc1c(-c2ccnc(Nc3ccc(S(=O)(=O)N4CCOCC4)cc3)n2)c(C)n2c1C(=O)NCC2` [Example I-50, 6,8-Dimethyl-7-{2-[4-(morpholine-4-sulfonyl)-phenylamino]-pyrimidin-4-yl}-3,4-dihydro-2H-pyrrolo[1,2-a]pyrazin-1-one], the IC50 is less than 1000 nM.

Take `Cc1c(-c2ccnc(Nc3ccc(OCCN4CCOCC4)cc3)n2)c(C)n2c1C(=O)NCC2` [Example I-51, 6,8-Dimethyl-7-{2-[4-(2-morpholin-4-yl-ethoxy)-phenylamino]-pyrimidin-4-yl}-3,4-dihydro-2H-pyrrolo[1,2-a]pyrazin-1-one]: the 50% inhibitory concentration (IC50) was less than 1000 nM.

For the compound `Cc1c(-c2ccnc(Nc3ccc(-c4cnco4)cc3)n2)c(C)n2c1C(=O)NCC2` [Example I-52, 6,8-Dimethyl-7-[2-(4-oxazol-5-yl-phenylamino)-pyrimidin-4-yl]-3,4-dihydro-2H-pyrrolo[1,2-a]pyrazin-1-one], the IC50 was less than 1000 nM.

The values above are taken from patent US8404692B2, “Pyrimidin-4-yl-3, 4-dihydro-2H-pyrrolo [1,2A] pyrazin-1-one compounds” (Cyclacel Limited, priority 2005, dated 2013).
